Assay results published in patent US20150352177A1, “Method Of Treating An Ocular Disease And Compositions Effective For Treating An Ocular Disease” (Howard University, priority 2012, published 2015).

test system: severe endophthalmitis; experiment: Combination therapy treatment of a subject with severe endophthalmitis (single case); type: in vivo, human; settings: topical Ceftazidime, Vancomycin and Prednisolone eye drops every two hours, without efflux transporter inhibitor, over two days, vision dropped to no light perception
Protocol: A uniocular subject was diagnosed with severe endophthalmitis in their only functioning eye. […] The subject was treated with an aggressive treatment regimen of topical antibiotics Ceftazidime eye drops, Vancomycin eye drops and steroid Prednisolone eye drops every two hours.
Cyclosporin A (sold as […]® from Allergan, Inc.) was added to the treatment regimen and was administered prior to administering the antibiotic and steroid eye drops.
The Ceftriaxone was added to the regimen to increase the aggressiveness of the therapy with the goal of preventing or eliminating any traces of infection in the retina, which can result in irreversible blindness.

| Structure (SMILES) | improvement under initial treatment regimen |
| --- | --- |
| C[C@]12C=CC(=O)C=C1CC[C@@H]1[C@@H]2[C@@H](O)C[C@@]2(C)[C@H]1CC[C@]2(O)C(=O)CO [Prednisolone] | no improvement |
| CC(C)(O/N=C(\C(=O)N[C@@H]1C(=O)N2C(C(=O)[O-])=C(C[n+]3ccccc3)CS[C@H]12)c1csc(N)n1)C(=O)O [Ceftazidime] | no improvement |
| CN[C@H](CC(C)C)C(=O)N[C@H]1C(=O)N[C@@H](CC(N)=O)C(=O)N[C@H]2C(=O)N[C@H]3C(=O)N[C@H](C(=O)N[C@H](C(=O)O)c4cc(O)cc(O)c4-c4cc3ccc4O)[C@H](O)c3ccc(c(Cl)c3)Oc3cc2cc(c3O[C@@H]2O[C@H](CO)[C@@H](O)[C@H](O)[C@H]2O[C@H]2C[C@](C)(N)[C@H](O)[C@H](C)O2)Oc2ccc(cc2Cl)[C@H]1O [Vancomycin] | no improvement |
